Laboratory results published in patent US10167262B2, “Herbicidal substituted 3-arylpyrazoles” (FMC CORPORATION, priority 2014, dated 2019).

What was measured:
Assay type in all cases: in vivo
[1] = test system: barnyardgrass (Echinochloa crus-galli); test: Test A pre-/postemergence greenhouse herbicide test, visual injury rating 0-100; conditions: 1000 g ai/ha
Procedure, shortened: (§1)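 Test chemicals in a non-phytotoxic solvent/surfactant blend were sprayed onto loam–sand soil after planting (pre) and onto 2–10 cm seedlings at one to two leaves (post). Greenhouse hold approx. 10 days; injury then judged visually.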

[2] = test system: wheat (Triticum aestivum); test: as above; conditions: 1000 g ai/ha
Procedure, shortened: as §1

[3] = test system: velvetleaf (Abutilon theophrasti); test: as above; conditions: 1000 g ai/ha
Procedure, shortened: as §1

[4] = test system: giant foxtail (Setaria faberii); test: as above; conditions: 1000 g ai/ha
Procedure, shortened: as §1

corn (Zea mays) = test: as above; conditions: 1000 g ai/ha
Procedure, shortened: as §1

[5] = test system: morningglory (Ipomoea spp.); test: as above; conditions: 1000 g ai/ha
Procedure, shortened: as §1

[6] = test system: large (Lg) crabgrass (Digitaria sanguinalis); test: as above; conditions: 1000 g ai/ha
Procedure, shortened: as §1

[7] = test system: pigweed (Amaranthus retroflexus); test: as above; conditions: 1000 g ai/ha
Procedure, shortened: as §1

[8] = test system: velvetleaf (Abutilon theophrasti); test: Test C pre-/postemergence greenhouse test, plant response rating 0-100
Procedure, shortened: (§2)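 Pre- and postemergence greenhouse test: seeds sown in loam/sand and treated preemergence, or plants at 2–18 cm (1- to 4-leaf stage) in peat-based medium sprayed postemergence, with compounds in non-phytotoxic solvent plus surfactant. Visual rating versus untreated controls after 13–15 days, 0 (no effect) to 100 (complete control).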

[9] = test system: johnsongrass (Sorghum halepense); test: as above
Procedure, shortened: as §2

[10] = test system: lambsquarters (Chenopodium album); test: as above
Procedure, shortened: as §2

[11] = test system: morningglory (Ipomoea coccinea); test: as above
Procedure, shortened: as §2

[12] = Postemergence, 250 g ai/ha, scale 0 to 100

SMILES: O=C(c1cncc(F)c1)c1c[nH]nc1-c1cc(Cl)cc(Cl)c1 [Compound 19]
- Plant response rating (0 to 100 scale), Barnyardgrass ([1]; Postemergence): 0
- Plant response rating (0 to 100 scale), Barnyardgrass ([1]; Preemergence): 0
- Plant response rating (0 to 100 scale), Wheat ([2]; Postemergence): 0
- Plant response rating (0 to 100 scale), Wheat ([2]; Preemergence): 0
- Plant response rating (0 to 100 scale), Velvetleaf ([3]; Postemergence): 100
- Plant response rating (0 to 100 scale), Velvetleaf ([3]; Preemergence): 90
- Plant response rating (0 to 100 scale), Foxtail, Giant ([4]; Postemergence): 0
- Plant response rating (0 to 100 scale), Foxtail, Giant ([4]; Preemergence): 0
- Plant response rating (0 to 100 scale), Corn (corn (Zea mays); Postemergence): 0
- Plant response rating (0 to 100 scale), Corn (corn (Zea mays); Preemergence): 0
- Plant response rating (0 to 100 scale), Morningglory ([5]; Postemergence): 0
- Plant response rating (0 to 100 scale), Morningglory ([5]; Preemergence): 0
- Plant response rating (0 to 100 scale), Crabgrass, Large ([6]; Postemergence): 0
- Plant response rating (0 to 100 scale), Crabgrass, Large ([6]; Preemergence): 0
- Plant response rating (0 to 100 scale), Pigweed ([7]; Postemergence): 100
- Plant response rating (0 to 100 scale), Pigweed ([7]; Preemergence): 100
- Plant response rating (0 to 100), Velvetleaf ([8]; Postemergence, 62 g ai/ha): 25
- Plant response rating (0 to 100), Velvetleaf ([8]; Postemergence, 125 g ai/ha): 40
- Plant response rating, Velvetleaf [8, 12]: 55
- Plant response rating, Velvetleaf ([8]; Preemergence, 62 g ai/ha): 40
- Plant response rating, Velvetleaf ([8]; Preemergence, 125 g ai/ha): 75
- Plant response rating, Velvetleaf ([8]; Preemergence, 250 g ai/ha): 98
- Plant response rating (0 to 100), Johnsongrass ([9]; Postemergence, 62 g ai/ha): 0
- Plant response rating (0 to 100), Johnsongrass ([9]; Postemergence, 125 g ai/ha): 0
- Plant response rating, Johnsongrass [9, 12]: 0
- Plant response rating, Johnsongrass ([9]; Preemergence, 31 g ai/ha): 0
- Plant response rating, Johnsongrass ([9]; Preemergence, 62 g ai/ha): 0
- Plant response rating, Johnsongrass ([9]; Preemergence, 125 g ai/ha): 0
- Plant response rating, Johnsongrass ([9]; Preemergence, 250 g ai/ha): 0
- Plant response rating (0 to 100), Lambsquarters ([10]; Postemergence, 62 g ai/ha): 10
- Plant response rating (0 to 100), Lambsquarters ([10]; Postemergence, 125 g ai/ha): 15
- Plant response rating, Lambsquarters [10, 12]: 10
- Plant response rating, Lambsquarters ([10]; Preemergence, 31 g ai/ha): 100
- Plant response rating, Lambsquarters ([10]; Preemergence, 62 g ai/ha): 100
- Plant response rating, Lambsquarters ([10]; Preemergence, 125 g ai/ha): 100
- Plant response rating, Lambsquarters ([10]; Preemergence, 250 g ai/ha): 100
- Plant response rating (0 to 100), Morningglory ([11]; Postemergence, 62 g ai/ha): 0
- Plant response rating (0 to 100), Morningglory ([11]; Postemergence, 125 g ai/ha): 0
- Plant response rating, Morningglory [11, 12]: 0
- Plant response rating, Morningglory ([11]; Preemergence, 31 g ai/ha): 0
- Plant response rating, Morningglory ([11]; Preemergence, 62 g ai/ha): 0
- Plant response rating, Morningglory ([11]; Preemergence, 125 g ai/ha): 0
- Plant response rating, Morningglory ([11]; Preemergence, 250 g ai/ha): 10
